# In patent publication US12459921B2, “Isoindoline compound, preparation method, pharmaceutical composition and use thereof” (SHANGHAI INSTITUTE OF MATERIA MEDICA, CHINESE ACADEMY OF …, priority 2018, dated 2025):
# Tested on: MM.1S cells
# Test: Inhibitory effect on the proliferation of MM.1S, MTS cell viability test
# Format: cell-based
# Settings: Homo sapiens, MM1.S, 168 h, multiple myeloma MM.1S cells, 7 days incubation, read-out: Tumor cell inhibitory activity
# Outline: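 MM.1S cells (20,000/well, RPMI 1640 with 10% FBS) exposed to 5-fold compound dilutions at 0.2% DMSO for 7 days at 37° C, 5% CO2. MTS added for 3-4 h; OD490-OD690 gave inhibition versus DMSO, IC50 fitted, mean of three experiments.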
row,IC50 [nM],SMILES
1,1000 to 20000,"CC(=O)N[C@@H](CCCc1cccc2c1CN(C1CCC(=O)NC1=O)C2=O)C(=O)N[C@@H](C)c1ccccc1 (stereo partly drawn) [Example 171, (2S)-2-acetylamino-5-(2-(2,6-dioxopiperidine-3-)-1-oxoisoindoline-4-)-N—((S)-1-phenethyl)pentanamide]"
2,> 20000,"N[C@@H](CCCc1cccc2c1CN(C1CCC(=O)NC1=O)C2=O)C(=O)Nc1ccccc1-c1cccnc1 (stereo partly drawn) [Example 172, (2S)-2-amino-5-(2-(2,6-dioxopiperidine-3-)-1-oxoisoindoline-4-)-N-(2-(pyridine-3-)phenyl)pentaneamide]"
3,> 20000,"N[C@@H](CCCc1cccc2c1CN(C1CCC(=O)NC1=O)C2=O)C(=O)NC12CC3CC(CC(C3)C1)C2 (stereo partly drawn) [Example 174, (2S)—N-((3R,5R,7R)-adamantane-1-)-2-amino-5-(2-(2,6-dioxopiperidine-3-)-1-oxoisoindoline-4-)pentanamide]"
4,100 to 1000,CC(=O)N[C@@H](CCCc1cccc2c1CN(C1CCC(=O)NC1=O)C2=O)C(=O)N[C@H]1CCc2ccccc21 (stereo partly drawn) [Example 175]
5,> 20000,"N[C@@H](CCCc1cccc2c1CN(C1CCC(=O)NC1=O)C2=O)C(=O)NC1C2CC3CC(C2)CC1C3 (stereo partly drawn) [Example 176, (2S)—N-((1S,3S,5S,7 S)-adamantane-2-)-2-amino-5-(2-(2,6-dioxopiperidine-3-)-1-oxoisoindoline-4-)pentanamide]"
6,100 to 1000,"CC(=O)N[C@@H](CCCc1cccc2c1CN(C1CCC(=O)NC1=O)C2=O)C(=O)N[C@@H]1CCc2ccccc21 (stereo partly drawn) [Example 177, (2S)-2-acetylamino-N—((R)-2,3-dihydro-1H-indene-1-)-5-(2-(2,6-dioxopiperidine-3-)-1-oxoisoindoline-4-)pentanamide]"
7,100 to 1000,"CC(=O)N[C@@H](CCCc1cccc2c1CN(C1CCC(=O)NC1=O)C2=O)C(=O)NCc1ccc(F)cc1F (stereo partly drawn) [Example 178, (2S)-2-acetylamino-N-(2,4-difluorobenzyl)-5-(2-(2,6-dioxopiperidine-3-)-1-oxoisoindoline-4-)oxoisoindoline]"
8,< 100,"CC(=O)N[C@@H](CCCc1cccc2c1CN(C1CCC(=O)NC1=O)C2=O)C(=O)N[C@H]1CCCc2ccccc21 (stereo partly drawn) [Example 179, (2S)-2-acetylamino-5-(2-(2,6-dioxopiperidine-3-)-1-oxoisoindoline-4-)-N—((S)-1,2,3,4-tetrahydronaphthyl-1-)pentanamide]"
9,100 to 1000,"COc1ccc(CNC(=O)[C@H](CCCc2cccc3c2CN(C2CCC(=O)NC2=O)C3=O)NC(C)=O)c(OC)c1 (stereo partly drawn) [Example 180, (2S)-2-acetylamino-N-(2,4-dimethoxybenzyl)-5-(2-(2,6-dipiperidine-3-)-1-oxoisoindoline-4-)pentanamide]"
10,100 to 1000,"CC(=O)N[C@@H](CCCc1cccc2c1CN(C1CCC(=O)NC1=O)C2=O)C(=O)NC(c1ccccc1)c1ccccc1 (stereo partly drawn) [Example 181, (2S)-2-acetylamino-N-benzhydryl-5-(2-(2,6-dioxopiperidine-3-)-1-oxoisoindoline-4-) pentanamide]"
11,< 100,"Cc1ccc(NC(=O)[C@H](CCCc2cccc3c2CN(C2CCC(=O)NC2=O)C3=O)NC(=O)C(C)C)cc1Cl (stereo partly drawn) [Example 183, (2S)—N-(3-chloro-4-methylphenyl)-5-(2-(2,6-dioxopiperidine-3-)-1-oxoisoindoline-4-)-2-isobutyrylaminopentanamide]"
12,100 to 1000,"CC(=O)N[C@@H](CCCc1cccc2c1CN(C1CCC(=O)NC1=O)C2=O)C(=O)NCc1cccc(Cl)c1 (stereo partly drawn) [Example 184, (2S)-2-acetylamino-N-(3-chlorobenzyl)-5-(2-(2,6-dioxopiperidine-3-)-1-oxoisoindoline-4-)pentanamide]"
13,< 100,"Cc1ccc(NC(=O)[C@H](CCCc2cccc3c2CN(C2CCC(=O)NC2=O)C3=O)NC(=O)C2CC2)cc1Cl (stereo partly drawn) [Example 185, N-((2S)-1-((3-chloro-4-methylphenyl)amino)-5-(2-(2,6-dioxopiperidine-3-)-1-oxoisoindoline-4-)-1-oxopentyl-2-)cyclopropylformamide]"
14,100 to 1000,"CC(=O)N[C@@H](CCCc1cccc2c1CN(C1CCC(=O)NC1=O)C2=O)C(=O)NCc1ccc(N2CCCC2)cc1 (stereo partly drawn) [Example 186, (2S)-2-acetylamino-5-(2-(2,6-dioxopiperidine-3-)-1-oxoisoindoline-4-)-N-(4-(pyrrolidine-1-)benzyl)pentanamide]"
15,< 100,"Cc1ccc(NC(=O)[C@H](CCCc2cccc3c2CN(C2CCC(=O)NC2=O)C3=O)NC(=O)C2CCC2)cc1Cl (stereo partly drawn) [Example 187, N-((2S)-1-((3-chloro-4-methylphenyl)amino)-5-(2-(2,6-dioxopiperidine-3-)-1-oxoisoindoline-4-)-1-oxopentyl-2-)cyclobutylcarboxamide]"
16,100 to 1000,"CC(=O)N[C@@H](CCCc1cccc2c1CN(C1CCC(=O)NC1=O)C2=O)C(=O)NC(C)(C)c1ccccc1 (stereo partly drawn) [Example 188, (2S)-2-acetylamino-5-(2-(2,6-dioxopiperidine-3-)-1-oxoisoindoline-4-)-N-(2-phenylpropyl-2-)pentanamide]"
17,100 to 1000,"Cc1ccc(NC(=O)[C@H](CCCc2cccc3c2CN(C2CCC(=O)NC2=O)C3=O)NC(=O)CCCCCN)cc1Cl (stereo partly drawn) [Example 189, 6-amino-N-((2S)-1-((3-chloro-4-methylphenyl)amino)-5-(2-(2,6-dioxopiperidine-3-)-1-oxoisoindoline-4-)-1-oxopentyl-2-)hexanamide]"
18,1000 to 20000,CC(=O)N[C@@H](CCCc1cccc2c1CN(C1CCC(=O)NC1=O)C2=O)C(=O)NCc1ccc(OCCN(C)C)cc1 (stereo partly drawn) [Example 190]
19,100 to 1000,"Cc1ccc(NC(=O)[C@H](CCCc2cccc3c2CN(C2CCC(=O)NC2=O)C3=O)NC(=O)C2CCNCC2)cc1Cl (stereo partly drawn) [Example 191, N-((2S)-1-((3-chloro-4-methylphenyl)amino)-5-(2-(2,6-dioxopiperidine-3-) -1-oxoisoindoline-4-)-1-oxopentyl-2-)piperidine-4-carboxamide]"
20,100 to 1000,"CC(=O)N[C@@H](CCCc1cccc2c1CN(C1CCC(=O)NC1=O)C2=O)C(=O)NCc1ccc(Oc2ccccc2)cc1 (stereo partly drawn) [Example 192, (2S)-2-acetylamino-5-(2-(2,6-dioxopiperidine-3-)-1-oxoisoindoline-4-)-N-(4-phenoxybenzyl)pentanamide]"
21,< 100,"Cc1ccc(NC(=O)[C@H](CCCc2cccc3c2CN(C2CCC(=O)NC2=O)C3=O)NC(=O)CCCCCO)cc1Cl (stereo partly drawn) [Example 193, N-((2S)-1-(3-chloro-4-methylaniline)-5-(2-(2,6-dioxopiperidine-3-)-1-oxoisoindoline-4-)-1-oxopentyl-2-)-6-hydroxyhexanamide]"
22,100 to 1000,"CC(=O)N[C@@H](CCCc1cccc2c1CN(C1CCC(=O)NC1=O)C2=O)C(=O)Nc1ccccc1-c1ccccn1 (stereo partly drawn) [Example 194, (2S)-2-acetylamino-5-(2-(2,6-dioxopiperidine-3-)-1-oxoisoindoline-4-)-N-(2-(pyridine-2-)phenyl)pentanamide]"
23,1000 to 20000,"CC(=O)N[C@@H](CCCc1cccc2c1CN(C1CCC(=O)NC1=O)C2=O)C(=O)Nc1ccccc1-c1cccnc1 (stereo partly drawn) [Example 196, (2S)-2-acetylamino-5-(2-(2,6-dioxopiperidine-3-)-1-oxoisoindoline-4-)-N-(2-(pyridine-3-)phenyl)pentanamide]"
24,100 to 1000,"CC(=O)N[C@@H](CCCc1cccc2c1CN(C1CCC(=O)NC1=O)C2=O)c1nc2cccc(Br)c2[nH]1 (stereo partly drawn) [Example 197, N-((1S)-1-(7-bromo-1H-benzo[d]imidazole-2-)-4-(2-(2,6-dioxopiperidine-3-)-1-oxoisoindoline-4-)butyl)acetamide]"
